Source: patent publication US12517131B2, “Methods for labeling eukaryotic cells from a multicellular organism as well as for treating and/or diagnosing a cancer using modified monosaccharide compounds” (DIAMIDEX, priority 2019, dated 2026)

What was measured:
[1] = system: Macrophage (primary cells); experiment: In vitro cytotoxicity of Ara-N3 probe (Annexin V/IP, MTS); format: cell-based, human; conditions: tested 1, 10, 50 and 100 mM, 24 h and 48 h
Protocol: (§1) The cell lines (as detailed below in the table) were provided by Inserm/Aquiderm transfer cell. Cell culture of cell lines and cell cytoxicity tests were also carried out by Aquiderm transfer cell, in the laboratory of INSERM U1035.
Human mononucleated cells were isolated from peripheral blood from 2 different healthy donors by convention established with the Etablissement Frangais du Sang d'Aquitaine. The technique used was Ficoll gradient isolation. Briefly, the blood diluted in a phosphate buffered saline solution (PBS) was deposited on a sucrose solution (Ficoll, Eurobio) and centrifuged in order to separate the different blood elements. Between Ficoll and plasma was established a cell ring composed of monocytes and lymphocytes. This was recovered and washed in PBS for counting on the Malassez cell.
Human CD14+monocytes were isolated from […] by magnetic beads coupled to an anti-CD14 antibody (Miltenyi Biotech). The mononuclear cells were incubated for 15 minutes, in PBS buffer, in the presence of a determined concentration of beads depending on the number of cells. […]
Briefly, after incubation of the cells with the Ara-N3 probe at different concentrations and at different times (24 h and 48 h), the cells were recovered, trypsinized (for adherent cells) and washed in PBS. […] They were then directly analyzed by cytometry after adding 100 μL of labeling buffer. […]

[2] = In vivo non-toxicity of Ara-N3 in nude mice; parameters: species or system NMRI nude mice
Protocol: Ten Female NMRI nude mice (6 weeks old, Janvier, Le Genest-Saint Isle, France) were enrolled in this assay. Three were injected intravenously every other day for 8 days (4 injections) with 50 mg/mouse/injection of Ara-N3 for 200 mg cumulative dose, and three other mice were treated for 8 days with 50 mg of Ara-N3 in 8 mL of water consumed per day, for 400 mg cumulative dose. As control groups, four tumor-bearing mice were not treated.
Mice were euthanized and dissected at the end of treatment. Heart, lung, brain, uterus, ovaries, kidney, skeletal muscle, spleen, pancreas, abdominal fat, liver, skin, stomach, colon, caecum, small intestine, mesenteric lymph nodes, axillary lymph nodes, brachial lymph nodes and total blood were harvested and frozen for analyses.

[3] = system: THP1 (tumoral cell lines); experiment: In vitro cytotoxicity of Ara-N3 probe (Annexin V/IP, MTS); format: cell-based, human; conditions: tested 1, 10, 50 and 100 mM, 24 h and 48 h
Protocol: as §1
(§2) The cells were cultivated in an oven at 37° C., 5% CO2 and 95% humidity, in different culture media: • either in RPMI 1640 medium supplemented with 10% of decomplemented FCS (Fetal calf serum) and antibiotics penicillin (100 IU/ml) and […] (100 μg/ml), for the pair Monocytes/THP1. • either in DMEM medium supplemented with 10% of decomplemented FCS and antibiotics penicillin (100 IU/ml) and […] (100 μg/ml) for the Hacat/A431 couple.
(§3) All the cells were seeded in culture plates, either in 96 wells at the density of 1*10^4 cells/well for the MTS proliferation test, either in 24 wells at the density of 5*10^4 cells/well for the Annexin V test/IP test. Then the cells were incubated at 37° C. and 5% CO2 for 24 hours. After 24 hours, the culture medium was changed in all the wells and the cells adhered to the bottom of the wells were rinsed twice in PBS (Eurobio) or centrifuged and washed twice in PBS for the cells in suspension, before being exposed to the Ara-N3 probe at different concentrations: 1, 10, 50 and 100 mM. The cells were incubated at 37° C. and 5% CO2 for 48 hours.
(§4) This test requires the use of an Annexin V-APC kit (Biolegend) for the detection of apoptosis/necrosis. This test uses the ability of Annexin V to bind to membrane phosphatidylserines (PS) and the intercalating properties of propidium iodide (PI) on DNA.
(§5) Briefly, after incubation of the cells with the Ara-N3 probe at different concentrations and at different times (24 h and 48 h), the cells were recovered, trypsinized (for adherent cells) and washed in PBS. After counting in trypan blue on the Malassez cell, the cells were incubated in a labeling buffer (100 μL) in the presence of Annexin V-APC (5 μL) and of IP (10 μL) for 15 minutes at room temperature and in the dark. They were then directly analyzed by cytometry after adding 100 μL of labeling buffer. […]

[4] = system: HACAT (immortalized cell lines); experiment: as above; format: cell-based, human; conditions: tested 1, 10, 50 and 100 mM, 24 h and 48 h
Protocol: as §1, §2, §3, §4, §5

[5] = system: A431 (tumoral cell lines); experiment: as above; format: cell-based, human; conditions: tested 1, 10, 50 and 100 mM, 24 h and 48 h
Protocol: as §1, §2, §3, §4, §5

[6] = system: MDA MB453 (tumoral cell lines); experiment: as above; format: cell-based
Protocol: as §1, §3, §4
(§6) Briefly, after incubation of the cells with the Ara-N3 probe at different concentrations and at different times (24 h and 48 h), the cells were recovered, trypsinized (for adherent cells) and washed in PBS. After counting in trypan blue on the Malassez cell, the cells were incubated in a labeling buffer (100 μL) in the presence of Annexin V-APC (5 μL) and of IP (10 μL) for 15 minutes at room temperature and in the dark. They were then directly analyzed by cytometry after adding 100 μL of labeling buffer.
(§7) The non-toxic concentrations of Ara-N3 with respect to the tested cells are gathered in the following Table 5.

[7] = system: MDA MB231 (tumoral cell lines); experiment: as above; format: cell-based
Protocol: as §1, §3, §4, §6, §7

[8] = system: MDA MB175 (tumoral cell lines); experiment: as above; format: cell-based
Protocol: as §1, §3, §4, §6, §7

[9] = system: HME1 (immortalized cell lines); experiment: as above; format: cell-based
Protocol: as §1, §3, §4, §6, §7

Structure (SMILES): [N-]=[N+]=NC[C@H]1OC(O)[C@@H](O)[C@@H]1O (stereo partly drawn) [Ara-N3, 5-azido-5-deoxy-D-arabinofuranose]
- Non-toxic concentration of Ara-N3 [1]: >10 mM
- water consumption of the mice ([2]; Ara-N3 in drinking water up to 6.25 mg/mL, 8 days): did not alter the water consumption
- Non-toxic concentration of Ara-N3 ([2]; In vivo, Nude mouse (mice)): >1 mM
- body weight loss ([2]; in drinking water, 50 mg in 8 mL per day for 8 days, 400 mg cumulative dose): did not induce any body weight loss
- body weight loss ([2]; intravenous injections, 50 mg/mouse/injection every other day for 8 days, 200 mg cumulative dose): did not induce any body weight loss
- Non-toxic concentration of Ara-N3 [3]: >10 mM
- Non-toxic concentration of Ara-N3 [4]: >10 mM
- Non-toxic concentration of Ara-N3 [5]: >10 mM
- Non-toxic concentration of Ara-N3 [6]: >1 mM
- Non-toxic concentration of Ara-N3 [7]: >1 mM
- Non-toxic concentration of Ara-N3 [8]: >1 mM
- Non-toxic concentration of Ara-N3 [9]: >1 mM
